Source: US12303845B2, “Method for crystallization of active pharmaceutical ingredients” (Nanoform Finland Oyj, priority 2023, dated 2025)

Test: SEM of crystallized suspensions and dried products (crystal size grade, particle size)
Format: physicochemical
Design: key: 5 = nanocrystals; 1 = large crystals
Experimental: SEM images were captured using the Zeiss Sigma 300 VP SEM instruments. Samples were dispersed into water and filtered with 0.1 μm filter. Filters were dried, transferred to SEM sample holders, and coated with a 5 nm thick layer of platinum. Amorphous API nanoparticles (budesonide, ezetimibe, ceritinib, and apalutamide) were added as dry powders to aqueous polymer solutions. The mixtures were either • (i) mixed with a magnetic stirrer and ultrasonicated until API was completely surrounded by water (wetted). The stirring was continued for 16-24 h at ambient temperature or • (ii) blended with a metal spatula and allowed to stay at room temperature for 18-24 h. The suspensions formed were analyzed after 18-24 h. SEM and XRD samples were prepared as described above. Suspension comprising nanosized APIs prepared as shown above were dried in a vacuum desiccator overnight. The solid materials were grounded to produce powders. The powders were analyzed on XRD and SEM. The powders comprising nanosized APIs were used in the stability, permeability, and dissolution tests as described above.

Measured: Grade (SEM, visual inspection)

O=C1[C@H](CC[C@H](O)c2ccc(F)cc2)[C@@H](c2ccc(O)cc2)N1c1ccc(F)cc1 [Eze, ezetimibe]
5: PVPVA 5 wt.-%, SLS 0.2 wt.-%, mAPI 25 mg/g | PVPVA 15 wt.-%, no SLS, mAPI 150 mg/g | PVPVA 15 wt.-%, no SLS, mAPI 300 mg/g | PVPVA 20 wt.-%, no SLS, mAPI 100 mg/g | PVPVA 20 wt.-%, no SLS, mAPI 200 mg/g | PVPVA 20 wt.-%, no SLS, mAPI 400 mg/g | PVPVA 25 wt.-%, no SLS, mAPI 125 mg/g | PVPVA 25 wt.-%, no SLS, mAPI 250 mg/g
4: PVPVA 2.5 wt.-%, SLS 0.2 wt.-%, mAPI 25 mg/g
1: Poloxamer 407 1 wt.-%, no SLS, mAPI 25 mg/g | Poloxamer 407 2.5 wt.-%, no SLS, mAPI 25 mg/g | Poloxamer 407 5 wt.-%, no SLS, mAPI 25 mg/g
3: PVP K30 1 wt.-%, no SLS, mAPI 25 mg/g | PVP K30 2.5 wt.-%, no SLS, mAPI 25 mg/g | PVP K30 5 wt.-%, no SLS, mAPI 25 mg/g | PVPVA 1 wt.-%, no SLS, mAPI 25 mg/g polymer solution
2: HPMC 1 wt.-%, SLS 0.2 wt.-%, mAPI 25 mg/g | HPMC 1 wt.-%, no SLS, mAPI 25 mg/g | HPMC 2.5 wt.-%, SLS 0.2 wt.-%, mAPI 25 mg/g | HPMC 2.5 wt.-%, no SLS, mAPI 25 mg/g | HPMC 5 wt.-%, SLS 0.2 wt.-%, mAPI 25 mg/g | HPMC 5 wt.-%, no SLS, mAPI 25 mg/g | PVPVA 1 wt.-%, SLS 0.2 wt.-%, mAPI 25 mg/g | PVPVA 2.5 wt.-%, no SLS, mAPI 25 mg/g | PVPVA 5 wt.-%, no SLS, mAPI 25 mg/g
